Measured values published in US20120142601A1, “Modified Peptides and Uses Thereof” (MUSC Foundation for Research Development, priority 2009, published 2012).
Non-standard residues stand in square brackets, D forms with d. Residues, ends and D or L forms follow the SMILES beside them. No end group written: not given here. *: point of attachment. NMeR = CN[C@@H](CCCNC(=N)N)C(=O)O; Tle = CC(C)(C)[C@H](N)C(=O)O; X1 = C[C@@H](CCCCCN)C(=O)*

What was measured:
Catalepsy (bar test) = conditions: 5 mg/kg
Description: (§1) In laboratory tests, catalepsy is characterized by the inability of an animal to correct its position after placement in an unnatural posture. Catalepsy tests may be greatly influenced by a number of variables. These include stress-induced inhibition of catalepsy caused by a new environment and the contribution of learned “pseudo-catalepsy” that may result upon repeated measures with the same animal. To circumvent these potential confounding factors, tests are performed on an animal only once in a quiet, controlled environment,
(§2) Finally, the bar test was utilized to measure catalepsy as a predictor of EPSEs in humans.

[1] = cited from earlier work
[2] = Hypothermia studies in the male Sprague-Dawley rat with various compounds; type: in vivo; conditions: dose 1 mg/kg in saline
Description: Hypothermia studies in the male Sprague-Dawley rat were conducted using different compounds (dosed in saline) and the results are summarized in Table 1. For each compound, the maximum decrease in temperature (Δtemp) and the area under the curve for hypothermia versus a saline control (AUC) were measured.

NTR1 = NTR1 (Homo sapiens, UniProt P30989); conditions: cited from earlier work
[3] = in vivo; cited from earlier work
[4] = rat, in vivo
Description: as §1, §2

Sequence of NTR1 (P30989 whole entry, species assumed): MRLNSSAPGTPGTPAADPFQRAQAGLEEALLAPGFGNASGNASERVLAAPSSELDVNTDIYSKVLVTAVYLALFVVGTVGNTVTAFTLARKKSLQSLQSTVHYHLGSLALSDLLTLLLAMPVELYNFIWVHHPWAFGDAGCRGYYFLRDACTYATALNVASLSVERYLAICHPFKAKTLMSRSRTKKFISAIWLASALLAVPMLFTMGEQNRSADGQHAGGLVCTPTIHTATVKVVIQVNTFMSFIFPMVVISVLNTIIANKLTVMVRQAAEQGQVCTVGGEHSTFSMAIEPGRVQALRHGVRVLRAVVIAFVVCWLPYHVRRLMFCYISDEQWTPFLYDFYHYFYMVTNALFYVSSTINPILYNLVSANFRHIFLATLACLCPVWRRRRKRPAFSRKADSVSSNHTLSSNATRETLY

Compound: CC(C)C[C@H](NC(=O)[C@@H](NC(=O)[C@H](Cc1ccc(O)cc1)NC(=O)[C@@H]1CCCN1C(=O)[C@H](CCCNC(=N)N)NC(=O)[C@@H](C)CCCCCN)C(C)(C)C)C(=O)O [ABS-201] (X1-RPY[Tle]L-OH)
- catalepsy after peripheral administration (Catalepsy (bar test)): does not induce catalepsy

Compound: N-Me-L-Arg-L-Lys-L-Pro-L-Trp-t-Leu-L-Leu ([NMeR]KPW[Tle]L) [SEQ ID NO:2, reference compound]
- central activity after oral administration ([1]; oral): not able to elicit central activity
- AUC (area under the curve for hypothermia versus saline control) [2]: 700
- Δtemp (maximum decrease in temperature) [2]: −4.2
- loss of binding affinity at NTR1 (NTR1): 700 fold

Compound: N-Me-L-Arg-L-Lys-L-Pro-L-neoTyr-t-Leu-L-Leu [NT69L]
- hypothermic effect ([1]; 1 mg/kg injection, 90 min post-injection): −5.3 °C
- effect of chronic administration on hypothermic effect ([1]; chronic administration): tolerance to its hypothermic effect
- hypothermic response after oral administration ([1]; oral): only a slight hypothermic response
- hyperactivity induced by cocaine and d-amphetamine [3]: attenuated hyperactivity
- Kd (NTR1): 1.55 nM

Compound: O=C(CCCN1CCC(O)(c2ccc(Cl)cc2)CC1)c1ccc(F)cc1 [Haloperidol]
- duration of induced catalepsy [4]: greater than 30 sec
